How the values were obtained:
healthy participants = assay: Safety and tolerability; type: in vivo, human
[1] = system: activated partial thromboplastin time (aPTT); assay: Activated partial thromboplastin time; type: in vivo, human
prothrombin time = assay: Prothrombin time, ex vivo pharmacodynamics; type: in vivo, human; conditions: SAD and MAD panels; data not shown
[2] = system: arterial and venous thrombosis; conditions: preclinical models of arterial and venous thrombosis; cited from earlier work
Multiple ascending dose = conditions: for Tmax: median (min-max)
[3] = MAD panel 12, 35 mg b.i.d. fasted, n = 6
[4] = MAD panel 13, 200 mg b.i.d. fasted, n = 6
[5] = MAD, all participants treated with milvexian, N = 42
[6] = all SAD and MAD dosing regimens

SMILES: C[C@@H]1CCC[C@H](n2cnc(-c3cc(Cl)ccc3-n3cc(Cl)nn3)cc2=O)c2cc(ccn2)-c2c(cnn2C(F)F)NC1=O [milvexian]
- Abdominal discomfort (TEAE) (healthy participants; [3]): 0 n (%)
- Abdominal pain (TEAE) (healthy participants; [3]): 0 n (%)
- Any TEAE (healthy participants; [3]): 2 (33.3) n (%)
- Diarrhea (TEAE) (healthy participants; [3]): 0 n (%)
- Dizziness (TEAE) (healthy participants; [3]): 1 (16.7) n (%)
- Headache (TEAE) (healthy participants; [3]): 0 n (%)
- Nausea (TEAE) (healthy participants; [3]): 0 n (%)
- Oropharyngeal pain (TEAE) (healthy participants; [3]): 0 n (%)
- Pain in extremity (TEAE) (healthy participants; [3]): 0 n (%)
- Abdominal discomfort (TEAE) (healthy participants; [4]): 0 n (%)
- Abdominal pain (TEAE) (healthy participants; [4]): 0 n (%)
- Any TEAE (healthy participants; [4]): 2 (33.3) n (%)
- Diarrhea (TEAE) (healthy participants; [4]): 0 n (%)
- Dizziness (TEAE) (healthy participants; [4]): 1 (16.7) n (%)
- Headache (TEAE) (healthy participants; [4]): 0 n (%)
- Nausea (TEAE) (healthy participants; [4]): 0 n (%)
- Oropharyngeal pain (TEAE) (healthy participants; [4]): 1 (16.7) n (%)
- Pain in extremity (TEAE) (healthy participants; [4]): 0 n (%)
- Diarrhea (TEAE) (healthy participants; MAD panels, milvexian): 11.9%
- Headache (TEAE) (healthy participants; MAD panels, milvexian): 14.3%
- participants reporting TEAEs (healthy participants; MAD panels, participants who received milvexian (21 participants)): 50.0%
- Abdominal discomfort (TEAE) (healthy participants; [5]): 2 (4.8) n (%)
- Abdominal pain (TEAE) (healthy participants; [5]): 2 (4.8) n (%)
- Any TEAE (healthy participants; [5]): 21 (50.0) n (%)
- Diarrhea (TEAE) (healthy participants; [5]): 5 (11.9) n (%)
- Dizziness (TEAE) (healthy participants; [5]): 3 (7.1) n (%)
- Headache (TEAE) (healthy participants; [5]): 6 (14.3) n (%)
- Nausea (TEAE) (healthy participants; [5]): 3 (7.1) n (%)
- Oropharyngeal pain (TEAE) (healthy participants; [5]): 2 (4.8) n (%)
- Pain in extremity (TEAE) (healthy participants; [5]): 2 (4.8) n (%)
- ECG abnormalities (healthy participants; SAD and MAD): no clinically significant ECG abnormalities
- incidence of laboratory and vital sign abnormalities vs placebo (healthy participants; SAD and MAD): no relevant differences
- participants reporting TEAEs (healthy participants; SAD panels, fasted participants who received milvexian (three participants)): 8.3%
- deaths or other SAEs (healthy participants; SAD up to 500 mg, MAD up to 200 mg b.i.d. or 500 mg q.d.): No deaths or other SAEs occurred
- Headache (TEAE) (healthy participants; SAD, 300 mg, fasted): 2 n
- nausea (TEAE) after a high-fat breakfast (healthy participants; SAD, 500-mg group, fed (one participant)): 16.7%
- clinically significant bleeding events (healthy participants; [6]): no clinically significant bleeding events
- severity of TEAEs (healthy participants; [6]): mild
- platelet count at next sampling time 2 days later (healthy participants; same participant, 35-mg b.i.d. group, within normal limits): 1.84e+11 L⁻¹
- maximal mean percent increase from baseline in aPTT ([1]; fasted SAD panel 4 mg): 11.9%
- maximal mean percent increase from baseline in aPTT ([1]; fasted SAD panel 20 mg): 36.7%
- maximal mean percent increase from baseline in aPTT ([1]; fasted SAD panel 60 mg): 85.2%
- maximal mean percent increase from baseline in aPTT ([1]; fasted SAD panel 200 mg): 147.1%
- maximal mean percent increase from baseline in aPTT ([1]; fasted SAD panel 300 mg): 140.8%
- maximal mean percent increase from baseline in aPTT ([1]; fasted SAD panel 500 mg): 188.3%
- Prothrombin time (prothrombin time): not increased at any time
- antithrombotic activity [2]: antithrombotic activity while preserving homeostasis
- time to steady-state plasma concentration (Multiple ascending dose; MAD 5-mg q.d. panel, visual inspection of trough concentrations): 1 dosing day
- dose proportionality of increases in exposure (Multiple ascending dose; MAD day 14, 5-500 mg): greater than dose‐proportional
- time to steady-state plasma concentration (Multiple ascending dose; MAD, once-daily dosing): ≤ 3 dosing days
- AUC (Multiple ascending dose; human, in vivo, 5 mg, AUC(0‐T), MAD panel 7, 5 mg q.d. fasted, day 14, n = 5, geometric mean (geometric CV%)): 0.146 µg·h/mL
- AUC (Multiple ascending dose; human, in vivo, 5 mg, AUC(TAU), MAD panel 7, 5 mg q.d. fasted, day 14, n = 5, geometric mean (geometric CV%)): 0.146 µg·h/mL
- Cmax at 14 days (Multiple ascending dose; human, in vivo, 5 mg, Cmax, MAD panel 7, 5 mg q.d. fasted, day 14, n = 5, geometric mean (geometric CV%)): 0.0148 µg/mL
- Tmax (Multiple ascending dose; human, in vivo, 5 mg, MAD panel 7, 5 mg q.d. fasted, day 14, n = 5): 2.03 h
- AUC (Multiple ascending dose; human, in vivo, 20 mg, AUC(0‐T), MAD panel 8, 20 mg q.d. fasted, day 14, n = 6, geometric mean (geometric CV%)): 1.66 µg·h/mL
- AUC (Multiple ascending dose; human, in vivo, 20 mg, AUC(TAU), MAD panel 8, 20 mg q.d. fasted, day 14, n = 6, geometric mean (geometric CV%)): 1.37 µg·h/mL
- Cmax at 14 days (Multiple ascending dose; human, in vivo, 20 mg, Cmax, MAD panel 8, 20 mg q.d. fasted, day 14, n = 6, geometric mean (geometric CV%)): 0.171 µg/mL
- Tmax (Multiple ascending dose; human, in vivo, 20 mg, MAD panel 8, 20 mg q.d. fasted, day 14, n = 6): 2.5 h
- AUC (Multiple ascending dose; human, in vivo, 70 mg, AUC(TAU), MAD panel 9, 70 mg q.d. fasted, day 14, n = 5, geometric mean (geometric CV%)): 4.22 µg·h/mL
- Cmax at 14 days (Multiple ascending dose; human, in vivo, 70 mg, Cmax, MAD panel 9, 70 mg q.d. fasted, day 14, n = 5, geometric mean (geometric CV%)): 0.434 µg/mL
- Tmax (Multiple ascending dose; human, in vivo, 70 mg, MAD panel 9, 70 mg q.d. fasted, day 14, n = 5): 3 h
- AUC (Multiple ascending dose; human, in vivo, 200 mg, AUC(0‐T), MAD panel 10, 200 mg q.d. fasted, day 14, n = 6, geometric mean (geometric CV%)): 18.9 µg·h/mL
- AUC (Multiple ascending dose; human, in vivo, 200 mg, AUC(TAU), MAD panel 10, 200 mg q.d. fasted, day 14, n = 6, geometric mean (geometric CV%)): 14.6 µg·h/mL
- Cmax at 14 days (Multiple ascending dose; human, in vivo, 200 mg, Cmax, MAD panel 10, 200 mg q.d. fasted, day 14, n = 6, geometric mean (geometric CV%)): 1.51 µg/mL
- Tmax (Multiple ascending dose; human, in vivo, 200 mg, MAD panel 10, 200 mg q.d. fasted, day 14, n = 6): 3.5 h
- AUC (Multiple ascending dose; human, in vivo, 500 mg, AUC(0‐T), MAD panel 11, 500 mg q.d. fed, day 14, n = 6, geometric mean (geometric CV%)): 142 µg·h/mL
- AUC (Multiple ascending dose; human, in vivo, 500 mg, AUC(TAU), MAD panel 11, 500 mg q.d. fed, day 14, n = 6, geometric mean (geometric CV%)): 95.1 µg·h/mL
- Cmax (Multiple ascending dose; human, in vivo, 500 mg, Cmax, MAD panel 11, 500 mg q.d. fed, day 14, n = 6, geometric mean (geometric CV%)): 7.59 µg/mL
- Tmax (Multiple ascending dose; human, in vivo, 500 mg, MAD panel 11, 500 mg q.d. fed, day 14, n = 6): 4 h
- half-life (Multiple ascending dose; human, in vivo, mean T1/2, range across MAD panels, MAD): 11.4 to 18.1 h

Source: paper PMC8841437 (Clinical and Translational Science, 2021)
